This note sets out measurements from patent US20040121946A9, “Inducing cellular immune responses to her2/neu using peptide and nucleic acid compositions” (priority 2002, published 2004).

One assay concerns the target HLA-B*0702 (Homo sapiens, UniProt P01889). Type of assay: binding. The following applies: Table XXIV, B7 supermotif peptides.
Assay [1] has as its system B7-supertype molecules (B*0702, B*3501, B*5101, B*5301, B*5401). The assay can be described thus: B7-supertype cross-reactive binding. The following applies: of five B7-supertype alleles tested. The arrangement: species or system human.
Another assay deals with DRB1*0301 (DR3) (Homo sapiens, UniProt P01903+P01911, A100K/A102G/A103R/A169T/F55Y/I96L/K41T/L162R/M171V/P40S/Q125H/Q178H/Q39Y/R42S/S66N/T106N/T262R/W38E/Y61H). The assay can be described thus: HLA class II peptide binding assay, purified HLA. The following applies: unit not given.
Setting [2] is: Table XXa, DR 3a motif peptides.
The mark [3] stands for this setting: Table XIX, DR supermotif peptides.

Where a SMILES comes first, the peptide text is derived from it. Where no end group is shown, it is not given here.

DRB1*0301 (DR3), sequence (P01903 26-254 limits assumed, other chains not shown): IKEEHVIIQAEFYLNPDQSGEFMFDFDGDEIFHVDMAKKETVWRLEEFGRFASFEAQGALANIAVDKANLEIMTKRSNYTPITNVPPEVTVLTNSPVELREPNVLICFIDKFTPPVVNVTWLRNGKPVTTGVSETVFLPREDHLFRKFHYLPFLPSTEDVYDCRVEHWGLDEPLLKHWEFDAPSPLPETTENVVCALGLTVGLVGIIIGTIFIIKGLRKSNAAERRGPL

Compound `CC[C@H](C)[C@H](NC(=O)[C@@H]1CCCN1C(=O)[C@@H](NC(=O)[C@@H](NC(=O)[C@H](CC(N)=O)NC(=O)[C@H](CC(N)=O)NC(=O)[C@H](CC(C)C)NC(=O)[C@@H]1CCCN1C(=O)[C@@H](N)Cc1ccccc1)[C@@H](C)O)[C@@H](C)O)C(=O)O` [Her2/neu.121.F1I9] registered an IC50 against HLA-B*0702 of 1.6 nM.

Consider `CC[C@H](C)[C@H](NC(=O)[C@H](CO)NC(=O)[C@H](CC(C)C)NC(=O)[C@H](CO)NC(=O)[C@H](C)NC(=O)[C@H](CC(N)=O)NC(=O)[C@@H](NC(=O)[C@@H]1CCCN1C(=O)[C@@H](N)Cc1ccccc1)[C@@H](C)O)C(=O)O` [Her2/neu.65.F1I9], for which the 50% inhibitory concentration (IC50) on HLA-B*0702 came out at 4.6 nM.

Turning to `CC[C@H](C)[C@H](NC(=O)[C@H](CO)NC(=O)[C@@H](NC(=O)[C@@H](NC(=O)[C@H](CO)NC(=O)[C@@H](NC(=O)[C@H](CC(C)C)NC(=O)[C@@H]1CCCN1C(=O)[C@@H](N)Cc1ccccc1)[C@@H](C)O)[C@@H](C)CC)[C@@H](C)CC)C(=O)O` [Her2/neu.649.F1I9], the “No. of B7 Alleles Crossbound” value in assay [1] is 5.

Take `CC[C@H](C)[C@H](NC(=O)[C@H](CS)NC(=O)[C@H](CCCNC(=N)N)NC(=O)[C@H](CO)NC(=O)CNC(=O)[C@H](CCCCN)NC(=O)[C@H](CS)NC(=O)[C@H](CCSC)NC(=O)[C@@H]1CCCN1C(=O)[C@@H](N)Cc1ccccc1)C(=O)O` [Her2/neu.196.F1] (H-FPMCKGSRCI-OH; N-terminus and C-terminus assumed): in assay [1], the “No. of B7 Alleles Crossbound” value is on record as 3.

As to FPLNNTTPV [Her2/neu.121.F1], the midpoint of inhibition against HLA-B*0702, the IC50, lay at 0.2 nM.

For `CC(C)C[C@H](NC(=O)[C@H](C)NC(=O)[C@H](Cc1ccc(O)cc1)NC(=O)[C@H](CC(N)=O)NC(=O)[C@H](CC(=O)O)NC(=O)[C@H](CCC(=O)O)NC(=O)[C@H](Cc1ccccc1)NC(=O)[C@H](CC(C)C)NC(=O)[C@H](CCC(N)=O)NC(=O)[C@@H](NC(=O)CN)[C@@H](C)O)C(=O)N[C@@H](C)C(=O)N[C@H](C(=O)N[C@@H](CC(C)C)C(=O)N[C@@H](CC(=O)O)C(=O)O)C(C)C`, at DRB1*0301 (DR3) (setting [2]), the DR3 binding data is given as 0.2200.

As for AIKVLRENTSPKANK, the DR3 binding data on DRB1*0301 (DR3) (setting [3]) and on DRB1*0301 (DR3) (setting [2]) was 0.0075 throughout.

Turning to FPGGLRELQI [Her2/neu.133.F1I10], on HLA-B*0702, half-maximal inhibition (IC50) was put at 306 nM.

Consider SDVFDGDLGMGAAKG, for which the DR3 binding data at DRB1*0301 (DR3) (setting [2]) was −0.0025.

On to GDLVDAEEYLVPQQG, for which the DR3 binding data on DRB1*0301 (DR3) (setting [2]) is reported as 0.0250.

With `CC[C@H](C)[C@H](NC(=O)[C@H](Cc1ccccc1)NC(=O)[C@H](CO)NC(=O)[C@H](CC(C)C)NC(=O)[C@H](CO)NC(=O)[C@H](C)NC(=O)[C@H](CC(N)=O)NC(=O)[C@@H](NC(=O)[C@@H]1CCCN1C(=O)[C@@H](N)Cc1ccccc1)[C@@H](C)O)C(=O)O` [Her2/neu.65.F1I10], at HLA-B*0702, 120 nM corresponded to half-maximal inhibition (IC50).

`CC[C@H](C)[C@H](NC(=O)[C@@H]1CCCN1C(=O)[C@H](CCSC)NC(=O)[C@H](Cc1ccc(O)cc1)NC(=O)[C@H](CO)NC(=O)[C@H](CC(C)C)NC(=O)[C@H](CC(=O)O)NC(=O)[C@@H]1CCCN1C(=O)[C@H](CCCCN)NC(=O)[C@@H](NC(=O)CNC(=O)[C@H](CO)NC(=O)[C@@H]1CCCN1)C(C)C)C(=O)N[C@@H](Cc1c[nH]c2ccccc12)C(=O)N[C@@H](CCCCN)C(=O)O`: the DR3 binding data on DRB1*0301 (DR3) (setting [3]) and at DRB1*0301 (DR3) (setting [2]) was −0.0027 each time.

`CC(C)C[C@H](NC(=O)[C@H](CS)NC(=O)[C@H](Cc1c[nH]cn1)NC(=O)[C@H](CCCNC(=N)N)NC(=O)[C@H](C)NC(=O)[C@H](CC(N)=O)NC(=O)[C@@H](NC(=O)[C@H](Cc1ccc(O)cc1)NC(=O)[C@H](CCC(=O)O)NC(=O)[C@H](CCCNC(=N)N)NC(=O)[C@@H]1CCCN1C(=O)[C@H](CC(C)C)NC(=O)CNC(=O)[C@H](CCC(N)=O)NC(=O)[C@@H](N)CC(C)C)C(C)C)C(=O)O`: the DR3 binding data on DRB1*0301 (DR3) (setting [3]) and on DRB1*0301 (DR3) (setting [2]) was −0.0027 in each case.
